From the NIST ThermoML archive (doi:10.1021/je900974u)

Assays:
[1] = Crystal
[2] = molar heat capacity at constant pressure; settings: 101.33 kPa, Liquid, Vacuum adiabatic calorimetry
[3] = Molar enthalpy of transition or fusion; settings: Crystal; Adiabatic calorimetry

CCCCCCCCCCCCCCn1cc[n+](C)c1.O=S(=O)([N-]S(=O)(=O)C(F)(F)F)C(F)(F)F
Settings | Molar enthalpy of transition or fusion [kcal/mol] | Triple point temperature [K]
[1] | – | 308.72
[3] | 9.536 | –

[2]
Settings | molar heat capacity at constant pressure [J/K/mol]
309.98 K | 896.3
310.38 K | 898
311.13 K | 898.7
312.28 K | 899.5
312.7 K | 900.9
313.43 K | 900.5
314.58 K | 902.3
315.01 K | 903.4
315.73 K | 903.4
316.88 K | 904.2
317.32 K | 905.3
318.04 K | 904
319.19 K | 906.1
319.63 K | 907.1
320.34 K | 907.5
321.49 K | 908.6
321.94 K | 909.6
322.64 K | 909.2
323.79 K | 910.6
324.94 K | 913.1
326.1 K | 913.5
327.25 K | 914.4
328.4 K | 915.1
329.55 K | 915.9
330.69 K | 918.6
331.84 K | 918.3
332.99 K | 919.1
334.14 K | 920.6
335.29 K | 922.4
336.45 K | 923
337.6 K | 924.6
338.75 K | 925.5
339.89 K | 926.2
341.04 K | 927.4
342.19 K | 927.9
343.33 K | 929.9
344.48 K | 930.4
345.62 K | 931.8
346.77 K | 933.1
347.91 K | 933.9
349.06 K | 935.2
350.2 K | 936.7
351.91 K | 939.3
354.21 K | 941.3
356.51 K | 943.4
358.83 K | 945.8
361.14 K | 947.9
363.45 K | 949.8
365.76 K | 951.8
368.07 K | 953.3

CCCC[N+]1(C)CCCC1.O=S(=O)([N-]S(=O)(=O)C(F)(F)F)C(F)(F)F
Settings | Molar enthalpy of transition or fusion [kcal/mol] | Triple point temperature [K]
[1] | – | 265.65
[3] | 5.234 | –

[2]
Settings | molar heat capacity at constant pressure [J/K/mol]
237.44 K | 546.8
239.5 K | 548
241.39 K | 549
243.28 K | 550.7
245.17 K | 552.2
247.06 K | 553.5
248.95 K | 554.6
250.84 K | 556
252.73 K | 557.3
254.62 K | 558.7
256.51 K | 559.6
258.4 K | 561.5
260.29 K | 562.1
262.04 K | 563.9
262.18 K | 563.5
264.07 K | 565.2
264.1 K | 565.2
265.99 K | 566.6
267.88 K | 567.6
269.77 K | 568.9
271.66 K | 570.2
273.55 K | 571.6
275.44 K | 572.9
277.33 K | 574.2
279.22 K | 575.3
281.11 K | 576.6
283 K | 577.9
284.89 K | 579.2
286.78 K | 580.2
288.67 K | 581.4
290.56 K | 582.8
292.45 K | 584
294.34 K | 585.1
296.23 K | 586.3
298.12 K | 588
300.01 K | 589
301.9 K | 590.6
303.79 K | 591.8
305.68 K | 593
307.57 K | 594.5
309.46 K | 595.6
311.34 K | 596.7
313.23 K | 598.2
315.12 K | 599.6
317.02 K | 600.8
318.92 K | 602.2
320.82 K | 603.4
322.71 K | 604.5
324.61 K | 606.1
326.51 K | 607.5
328.41 K | 608.6
330.31 K | 609.9
332.21 K | 611.4
334.11 K | 612.9
336.01 K | 614.2
337.91 K | 615.4
339.81 K | 616.8
341.72 K | 618.2
343.62 K | 619.5
345.52 K | 621
347.44 K | 622.4
349.34 K | 623.9
351.25 K | 625.2
353.16 K | 626.7
355.06 K | 627.9
356.97 K | 629.2
358.87 K | 630.9
360.78 K | 632.1
362.69 K | 633.7
364.59 K | 635
366.5 K | 636.1
368.4 K | 638
